Reference: ChEMBL document CHEMBL1201862, “PubChem BioAssay data set” (2004)
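Five concentrations, 48 hours, 96-well plates. GI50 marks 50% less growth.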 Active and inactive are the calls of the source. No stated cut-off is given here; in the data, active = GI50 up to about 1.1 µM and inactive = higher.

How the values were obtained:
Test in all cases: NCI anticancer screen, dose series, 48 h
[1] = tested on: SN12C
[2] = tested on: HOP-92
[3] = tested on: Malme-3M
[4] = tested on: HCC 2998
[5] = tested on: OVCAR-4
[6] = tested on: SF-295
[7] = tested on: CAKI-1
[8] = tested on: RPMI-8226
[9] = tested on: HCT-15
[10] = tested on: HL-60
[11] = tested on: OVCAR-8
[12] = tested on: UACC-257
[13] = tested on: NCI-H522
[14] = tested on: SK-MEL-28
[15] = tested on: A498
[16] = tested on: SNB-75
[17] = tested on: OVCAR-5
[18] = tested on: DU-145

| SMILES | GI50 [1] | GI50 [2] | GI50 [3] | GI50 [4] | GI50 [5] | GI50 [6] | GI50 [7] | GI50 [8] | GI50 [9] | GI50 [10] | GI50 [11] | GI50 [12] | GI50 [13] | GI50 [14] | GI50 [15] | GI50 [16] | GI50 [17] | GI50 [18] |
| --- | --- | --- | --- | --- | --- | --- | --- | --- | --- | --- | --- | --- | --- | --- | --- | --- | --- | --- |
| Cc1cc2c(C)n(Cc3ccc(Cl)cc3Cl)nc2c(C#N)c1C | 53.3 µM (inactive) | 13.6 µM (inactive) | 24.9 µM (inactive) | > 100 µM (inactive) | 9.89 µM (inactive) | 18.2 µM (inactive) | 41.8 µM (inactive) | 99.3 µM (inactive) | > 100 µM | > 100 µM (inactive) | 14.8 µM (inactive) | > 100 µM (inactive) | 38.5 µM (inactive) | 36 µM (inactive) | 65.8 µM (inactive) | 7.94 µM (inactive) | > 42.1 µM (inactive) |  |
| Clc1cccc(C2SCc3nc4ccccc4n32)c1 (stereo unspecified) | 13.8 µM (inactive) | 11.5 µM (inactive) | 22 µM (inactive) |  | 27 µM (inactive) | 30.3 µM (inactive) | 27 µM (inactive) | 14.2 µM (inactive) | 16.8 µM | 7.57 µM (inactive) | 24.8 µM (inactive) |  | 10.4 µM (inactive) | 19.1 µM (inactive) |  | 3.52 µM (inactive) | 15 µM (inactive) |  |
| COc1ccc(OC)c(NC(=O)C(=O)C(C(C)=O)c2nc3ccc(Cl)cc3nc2O)c1 (stereo unspecified) | > 50 µM (inactive) | > 50 µM (inactive) | > 50 µM (inactive) | > 50 µM (inactive) | > 50 µM (inactive) | > 50 µM (inactive) | > 50 µM (inactive) | > 50 µM (inactive) | > 50 µM | > 50 µM (inactive) | > 50 µM (inactive) | > 50 µM (inactive) |  | > 50 µM (inactive) | > 50 µM (inactive) | > 50 µM (inactive) | > 50 µM (inactive) |  |
| COC1(OC)CC2CCCCC2=C(C)N1S(=O)(=O)c1ccccc1 (stereo unspecified) | > 100 µM (inactive) | > 100 µM (inactive) | > 100 µM (inactive) |  | > 100 µM (inactive) | > 100 µM (inactive) | > 100 µM (inactive) | > 100 µM (inactive) | > 100 µM | > 100 µM (inactive) | > 100 µM (inactive) | > 100 µM (inactive) | > 100 µM (inactive) | > 100 µM (inactive) |  | > 100 µM (inactive) | > 100 µM (inactive) |  |
| [N-]=[N+]=Nc1nnc(CCCCc2nnc(N=[N+]=[N-])o2)o1 | > 100 µM (inactive) | > 100 µM (inactive) | > 100 µM (inactive) | > 100 µM (inactive) | > 100 µM (inactive) | > 100 µM (inactive) |  |  | > 100 µM |  | > 100 µM (inactive) | > 100 µM (inactive) | > 100 µM (inactive) | > 100 µM (inactive) | > 100 µM (inactive) | > 100 µM (inactive) | > 100 µM (inactive) |  |
| COC(=O)/C=C(C)/C=C/C1OC(C)OCC1O (stereo unspecified) | > 100 µM (inactive) | > 100 µM (inactive) | > 100 µM (inactive) | > 100 µM (inactive) | > 100 µM (inactive) | > 100 µM (inactive) | > 100 µM (inactive) | > 100 µM (inactive) | > 100 µM | > 100 µM (inactive) | > 100 µM (inactive) | > 100 µM (inactive) | > 100 µM (inactive) |  | > 100 µM (inactive) |  | > 100 µM (inactive) |  |
| COC(=O)C(=O)C(C(=O)C(=O)Nc1cc([N+](=O)[O-])ccc1[N+](=O)[O-])c1nc2ccc(C(=O)c3ccccc3)cc2nc1O (stereo unspecified) | 44.2 µM (inactive) |  | 61.4 µM (inactive) | > 100 µM (inactive) | 49.9 µM (inactive) | 31 µM (inactive) | 19.3 µM (inactive) | 20.1 µM (inactive) | 56.5 µM |  | 26.9 µM (inactive) | 34.3 µM (inactive) | 26.7 µM (inactive) |  | 20.9 µM (inactive) |  | 20.7 µM (inactive) |  |
| Nc1nc2c(ncn2Cc2ccccc2CCO)c(=O)[nH]1 | > 100 µM (inactive) | > 100 µM (inactive) | > 100 µM (inactive) | > 100 µM (inactive) | > 100 µM (inactive) | > 100 µM (inactive) | > 100 µM (inactive) | > 100 µM (inactive) | > 100 µM | > 100 µM (inactive) | > 100 µM (inactive) |  | > 100 µM (inactive) | > 100 µM (inactive) | > 100 µM (inactive) | > 100 µM (inactive) | > 100 µM (inactive) |  |
| Cc1csc2nc(-c3ccncc3)cn12 | > 100 µM (inactive) | > 100 µM (inactive) | > 100 µM (inactive) | > 100 µM (inactive) | > 49.4 µM (inactive) | > 100 µM (inactive) | > 100 µM (inactive) | > 45.1 µM (inactive) | > 40.9 µM | > 36.3 µM (inactive) | > 100 µM (inactive) | > 100 µM (inactive) | > 82.2 µM (inactive) | > 100 µM (inactive) | > 100 µM (inactive) | > 100 µM (inactive) | > 100 µM (inactive) |  |
| N#Cc1cc([N+](=O)[O-])ccc1NC(=O)C(F)(F)F | > 100 µM (inactive) | 58.7 µM (inactive) | > 100 µM (inactive) | > 100 µM (inactive) | > 100 µM (inactive) | > 100 µM (inactive) | > 100 µM (inactive) | > 45.8 µM (inactive) | > 41.4 µM | > 57.1 µM (inactive) | > 84.3 µM (inactive) | > 100 µM (inactive) | > 58.5 µM (inactive) | > 100 µM (inactive) | > 100 µM (inactive) | > 49.7 µM (inactive) | > 100 µM (inactive) |  |
| Cc1ccc(SC(C)/C=C/NNC2=NN=C(c3ccccc3)C(c3ccccc3)N2)cc1 (stereo unspecified) | 36.4 µM (inactive) | 20 µM (inactive) | 49.8 µM (inactive) | 28 µM (inactive) | 29.1 µM (inactive) | 30.3 µM (inactive) | 13.5 µM (inactive) | 27.9 µM (inactive) | 26.9 µM | 13 µM (inactive) | 31.7 µM (inactive) | 31.5 µM (inactive) | 23.1 µM (inactive) | 76.4 µM (inactive) | 40.4 µM (inactive) | 20.7 µM (inactive) | 21.5 µM (inactive) |  |
| COC(=O)/C(=N/NC(C)(C)C)C(C(=O)C=C(C)C)C(=O)C(=O)Nc1ccc(Cl)cc1C (stereo unspecified) | > 100 µM (inactive) |  | > 100 µM (inactive) | > 100 µM (inactive) | > 100 µM (inactive) | > 100 µM (inactive) | > 100 µM (inactive) | > 100 µM (inactive) | > 100 µM | > 100 µM (inactive) | > 100 µM (inactive) | > 100 µM (inactive) | > 100 µM (inactive) | > 100 µM (inactive) | > 100 µM (inactive) |  | > 100 µM (inactive) |  |
| COC(=O)C(=O)C(C(C)=O)C(=O)NCc1ccc(OC)c(OC)c1 (stereo unspecified) | > 100 µM (inactive) | > 100 µM (inactive) | > 100 µM (inactive) | > 100 µM (inactive) | > 100 µM (inactive) | > 100 µM (inactive) | > 100 µM (inactive) |  | > 100 µM | > 100 µM (inactive) | > 100 µM (inactive) | > 100 µM (inactive) | > 100 µM (inactive) | > 100 µM (inactive) | > 100 µM (inactive) | > 100 µM (inactive) | > 100 µM (inactive) |  |
| CC1(C)OC2C(=O)OC(COCc3ccccc3)C2O1 (stereo unspecified) | > 100 µM (inactive) | > 100 µM (inactive) | > 100 µM (inactive) | > 100 µM (inactive) | > 100 µM (inactive) | > 100 µM (inactive) | > 100 µM (inactive) | > 100 µM (inactive) | > 100 µM | > 100 µM (inactive) | > 100 µM (inactive) | > 100 µM (inactive) |  | > 100 µM (inactive) | > 100 µM (inactive) | > 100 µM (inactive) | > 100 µM (inactive) |  |
| CN/N=C(\C(=O)Nc1ccc(C(F)(F)F)cc1[N+](=O)[O-])C(c1cnc2ccc([N+](=O)[O-])cc2n1)[N+](=O)[O-] (stereo unspecified) | > 100 µM (inactive) | 64.1 µM (inactive) | > 100 µM (inactive) | 49.5 µM (inactive) | > 10 µM (inactive) | 37.7 µM (inactive) | 14.3 µM (inactive) | 38.2 µM (inactive) | 37.1 µM |  | 59 µM (inactive) | 44.5 µM (inactive) | 6.84 µM (inactive) | > 100 µM (inactive) | 16.7 µM (inactive) |  | 22.9 µM (inactive) |  |
| COc1ccc(C2Oc3c(c(O)cc4c3[C@H](c3ccc(O)cc3O)[C@H](O)C(c3ccc(O)c(O)c3)O4)C[C@@H]2O)cc1O (stereo partly specified) | > 100 µM (inactive) | > 100 µM (inactive) | > 100 µM (inactive) | > 100 µM (inactive) | > 100 µM (inactive) | > 100 µM (inactive) | > 100 µM (inactive) | > 100 µM (inactive) | > 100 µM | > 100 µM (inactive) | > 100 µM (inactive) | > 100 µM (inactive) | > 100 µM (inactive) |  | > 100 µM (inactive) | > 100 µM (inactive) | > 100 µM (inactive) |  |
| COc1c(Br)cc(/C=C(\C#N)c2cccnc2)cc1Br | > 100 µM (inactive) | 23.1 µM (inactive) | > 100 µM (inactive) | 48 µM (inactive) | 81.5 µM (inactive) | 52.7 µM (inactive) | > 100 µM (inactive) | > 100 µM (inactive) | 33.5 µM | 36.2 µM (inactive) | 53.8 µM (inactive) | > 100 µM (inactive) | 42.1 µM (inactive) | 50.5 µM (inactive) |  | > 100 µM (inactive) | 30.3 µM (inactive) | > 100 µM (inactive) |
